Each compound was assayed against KRas G12D (Homo sapiens (Human), UniProt P01116, G12D) (assay: KRas G12D Binding Assay (TR-FRET displacement of Cy5 labelled tracer)). Conditions: GDP-loaded KRAS G12D (amino acids 1:169), 60 minute incubation at 22° C.
Procedure: After a 60 minute incubation at 22° C., the reaction was measured using a PerkinElmer EnVision multimode plate reader via TR-FRET dual wavelength detection, and the percent of control (POC) calculated using a ratiometric emission factor. […] The POC values were fit to a 4-parameter logistic curve and the IC50 value was determined as the concentration where the curve crosses 50 POC.
ND stands for “not determined.”

Chain of KRas G12D (P01116 other isoform, or with tags, fused parts or gaps G12D): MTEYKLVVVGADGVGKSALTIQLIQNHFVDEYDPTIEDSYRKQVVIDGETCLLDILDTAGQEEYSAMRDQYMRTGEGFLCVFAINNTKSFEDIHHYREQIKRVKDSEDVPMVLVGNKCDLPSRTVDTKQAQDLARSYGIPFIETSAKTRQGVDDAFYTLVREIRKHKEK

In order of rising IC50:
1. CN1CC[C@@H](COc2nc(N3C[C@H]4CC[C@@H](C3)N4)c3cnc(-c4cccc5cccc(Cl)c45)c(F)c3n2)C1 [Example 356, 4-((1R,5S)-3,8-diazabicyclo[3.2.1]octan-3-yl)-7-(8-chloronaphthalen-1-yl)-8-fluoro-2-(((R)-1-methylpyrrolidin-3-yl)methoxy)pyrido[4,3-d]pyrimidine]  0.0872 µM
2. CO[C@H]1CN[C@H](COc2nc(N3C[C@H]4CC[C@@H](C3)N4)c3cnc(-c4cccc5cccc(Cl)c45)c(F)c3n2)C1 [Example 351, 4-((1R,5S)-3,8-diazabicyclo[3.2.1]octan-3-yl)-7-(8-chloronaphthalen-1-yl)-8-fluoro-2-(((2S,4R)-4-methoxypyrrolidin-2-yl)methoxy)pyrido[4,3-d]pyrimidine]  0.0948 µM
3. CN1C[C@H](NC(=O)c2ccc(C=O)cc2)C[C@H]1COc1nc(N2C[C@H]3CC[C@@H](C2)N3)c2cnc(-c3cccc4cccc(Cl)c34)c(F)c2n1 [Example 353, N-((3R,5S)-5-(((4-((1R,5S)-3,8-diazabicyclo[3.2.1]octan-3-yl)-7-(8-chloronaphthalen-1-yl)-8-fluoropyrido[4,3-d]pyrimidin-2-yl)oxy)methyl)-1-methylpyrrolidin-3-yl)-4-formylbenzamide]  0.333 µM
4. CN1C[C@H](NC(=O)c2cccc(C=O)c2)C[C@H]1COc1nc(N2C[C@H]3CC[C@@H](C2)N3)c2cnc(-c3cccc4cccc(Cl)c34)c(F)c2n1 [Example 354, N-((3R,5S)-5-(((4-((1R,5S)-3,8-diazabicyclo[3.2.1]octan-3-yl)-7-(8-chloronaphthalen-1-yl)-8-fluoropyrido[4,3-d]pyrimidin-2-yl)oxy)methyl)-1-methylpyrrolidin-3-yl)-3-formylbenzamide]  0.368 µM
5. CN1CC[C@H](COc2nc(N3C[C@H]4CC[C@@H](C3)N4)c3cnc(-c4cccc5cccc(Cl)c45)c(F)c3n2)C1 [Example 357, 4-((1R,5S)-3,8-diazabicyclo[3.2.1]octan-3-yl)-7-(8-chloronaphthalen-1-yl)-8-fluoro-2-(((S)-1-methylpyrrolidin-3-yl)methoxy)pyrido[4,3-d]pyrimidine]  0.438 µM
6. Fc1c(-c2cccc3cccc(Cl)c23)ncc2c(N3CC4CCC(C3)N4)nc(OC[C@@H]3CC(F)(F)CN3)nc12 [Example 352, 4-((1R,5S)-3,8-diazabicyclo[3.2.1]octan-3-yl)-7-(8-chloronaphthalen-1-yl)-2-(((S)-4,4-difluoropyrrolidin-2-yl)methoxy)-8-fluoropyrido[4,3-d]pyrimidine bis(2,2,2-trifluoroacetate)]  0.845 µM
7. CN1C[C@H](NC(=O)c2ccccc2C=O)C[C@H]1COc1nc(N2C[C@H]3CC[C@@H](C2)N3)c2cnc(-c3cccc4cccc(Cl)c34)c(F)c2n1 [Example 355, N-((3R,5S)-5-(((4-((1R,5S)-3,8-diazabicyclo[3.2.1]octan-3-yl)-7-(8-chloronaphthalen-1-yl)-8-fluoropyrido[4,3-d]pyrimidin-2-yl)oxy)methyl)-1-methylpyrrolidin-3-yl)-2-formylbenzamide]  0.87 µM
8. CN1CC[C@@H](Oc2nc(N3C[C@H]4CC[C@@H](C3)N4)c3cnc(-c4cccc5cccc(Cl)c45)c(F)c3n2)C1 [Example 358, 4-((1R,5S)-3,8-diazabicyclo[3.2.1]octan-3-yl)-7-(8-chloronaphthalen-1-yl)-8-fluoro-2-(((R)-1-methylpyrrolidin-3-yl)oxy)pyrido[4,3-d]pyrimidine]  1.98 µM
9. Oc1c(F)cc(F)c(-c2ncc3c(N4C[C@H]5CC[C@@H](C4)N5)nc(OCC45CCCN4CCC5)nc3c2F)c1F [Example 350, 3-(4-((1R,5S)-3,8-diazabicyclo[3.2.1]octan-3-yl)-8-fluoro-2-((tetrahydro-1H-pyrrolizin-7a(5H)-yl)methoxy)pyrido[4,3-d]pyrimidin-7-yl)-2,4,6-trifluorophenol]  3.82 µM
